Measurements taken from publication PMC12876990, “Targeting secreted PLA2 interactions with EGFR and vimentin to arrest prostate tumour growth” (Cell Death & Disease, 2025).
Square brackets hold non-standard residues; d marks the D form. Peptide text beside a SMILES is read from it. 2Nal = N[C@@H](Cc1ccc2ccccc2c1)C(=O)O

Columns and labels:
[1] = 28-day oral toxicity study: daily clinical observations; format: in vivo, male Sprague Dawley rats; set-up: key to Clinical observations: NC A, no clinical abnormalities
Method: 3.6. Procedure for test item administration […]
intragastric cannula attached to a 3 mL syringe.
3.7. Observation of animals […]
groups: Day 29; recovery groups: Day 43).
(§1) (Appendix C Study Data Spreadsheets). […]
report (Appendix C Study Data Spreadsheets).
3.7.3. Clinical observations […]
groups and on the day of sa crifice. […]
and abnormal behaviour. Skin and fur, eyes and mucous membranes, respiratory, […]
patterns were monitored. Particular attention was paid to observation of tremor, convulsion, salivation, diarrhoea, lethargy, sleep and coma.
3.7.4. Detailed clinical examinations […]
the report (Appendix C Study Data Spreadsheets). […]

[2] = 28-day oral toxicity study: gross necropsy and organ weights; format: in vivo, male Sprague Dawley rats; conditions: for Heart weight on Necropsy: n = 10, mean ± SD
Method: The observations were recorded in the form of a sp readsheet and attached as an app endix to the report (Appendix C Study Data Spreadsheets). […]
(§2) Haematology and Biochemistry). […]
(Appendix C Study Data Spreadsheets).
Following sacrifice by intraperitoneal injection of sodium pentobarbitone a gros s necrop sy wa s performed. This included determination of the wet weight of the liver, kidneys, adrenals, testes, spleen, thymus, heart, epididymis, prostate + semi nal vesicle s with coagulating glands as whole […]
and brain. […]
Tissues and carcas ses were placed in 10% formalin. The tissues to be processed for histopathological examinations were fixed for at least 48 hours prior to cassette preparation. […]
Slides were […]
evaluated for histology change s under light microscopy at a magnification of 100 to 1000 times.
Individual histopathology results and a summar y are attached a s an app endix to the report (Appendix E Histopathology).
3.14. Statistical analyses
Clinical observations, detailed clinical observations, functional observations, blood and urine analyses and histopathology were summarised by descriptive analysis.
Statistical analyses, consisting of unpaired t-tests, were performed on measured variables: percentage body weight gain s, food consumption and organ weights as a percentage of body weight. A significance level of P < 0.05 was used for all tests.

[3] = 28-day oral toxicity study: biochemistry analysis; format: in vivo, male Sprague Dawley rats
Method: Blood analyse s (haematology and biochemistry) w ere performed on all animals on Day 29 (main groups) or Day 43 (recovery groups). Approximately 4 mL of blood was taken from ea ch animal by cardiac puncture using a 10 mL syringe and 21-gauge needle. The procedure involved anaesthetising by intraperitoneal injection of sodi um pentobarbitone using a 2 mL sterile plastic syringe attached to a 26-gauge needle (Terumo).
For each blood sampling, the blood was divided into two aliquots: (i) one was placed into a tube containing EDTA (for whole blood and EDTA plasma), (ii) one aliquot into a Li-heparin tube. […]
Results and methods of analysis were attached in an appendix to the report (Appendix D Haematology and Biochemistry). Blood smear s for cell morphology were prepared. […]
3.9.2. Biochemistry analysis
The following parameters were analysed: glucose (Glu), urea, creatinine (Creat), total protein (TP), albumin (ALB), albumin/globulin ratio (A:G), total bilirubin (TBil), alkaline phosphatase (ALP), aspartate aminotransferase (AST), alanine aminotransferase (ALT), creatine kinase (CK), chole sterol (Chol), calcium (Ca), phosphate (Phos), Ca:P ratio, sodium (Na), potassium (K), Na:K ratio, chloride (Cl), globulin (Glob), gamma glutamyl transferase (GGT) and triglycerides (Trig).
as §2, §1

[4] = rat, in vivo, 20 mg/kg
Method: The calculated volumetric do se wa s administered to each rat orally by gav age, using a plastic
Two dose level s of 1 and 20 mg/kg of the te st it em susp ension were administered to each rat
every 3 days (total 10 do ses) for 28 days. This c orresponded to volumetric dose of 10.09 and
10.23 mL/kg. The volumetric dose administered to each animal was calculated on Days 1, 8, 15
Feed consumption was monitored weekly over the 28-day experimental period in all groups
and was continued for a further 2 weeks in the recovery groups (42-day experimental
period). Feed intake was monitored by providing a known mass of feed to each cage and
subtracting the mas s remaining at the end of th e weekly period. Animals were fa sted
overnight on either Day 28 (main groups) or Day 42 (recovery groups).

[5] = Pharmacokinetics of c2 after oral administration to Sprague Dawley rats (LC MS/MS); format: in vivo; conditions: 100 mg/kg po
Method: Rat studies were performed under contract to the accredited animal research establishment ICP Firefly Pty Ltd. (Alexandria, NSW, Australia; Ref. No AW96/042, NSW Dep’t Primary Industries) with ethics approval from the ICP Firefly animal ethics committee. Briefly, male rats (Sprague Dawley, n = 5 / group) were treated with c2 (single dose 100 mg/kg suspended in 0.1% carboxymethylcellulose, po) and housed in metabolic cages. Animals were sacrificed at 1, 2, 8 or 24 h, blood and tissue samples taken for further analysis, with urine and faeces collected for 1, 6 and 16 hours respectively. Following extraction, c2 concentration in plasma was measured using a validated LC MS/MS assay (limit of detection 7.5 ng/mL and lower limit of quantitation 15 ng/mL in plasma, accuracy 98% and imprecision 12.7% at […]).

[6] = Day 43, Gr 5 recovery, 20 mg/kg

CC(C)C[C@@H]1NC(=O)[C@H](Cc2ccc3ccccc3c2)NC(=O)[C@H](CCCNC(=N)N)NC(=O)[C@H](Cc2ccc3ccccc3c2)NC(=O)[C@H](CO)NC1=O [c2, cyclo-((2-Nal)-Leu-Ser-(2-Nal)-Arg)] (cyclo([2Nal]LS[2Nal]R))
clinical signs ([1]; 1 and 20 mg/kg): did not have an adverse effect
Clinical observations ([1]; Day 1-7, Gr 2, 1 mg/kg): NC A
Clinical observations ([1]; Day 1-7, Gr 3, 20 mg/kg): NC A
Clinical observations ([1]; Day 1-7, Gr 5 recovery, 20 mg/kg): NC A
Clinical observations ([1]; Day 8-14, Gr 2, 1 mg/kg): NC A
Clinical observations ([1]; Day 8-14, Gr 3, 20 mg/kg): NC A
Clinical observations ([1]; Day 8-14, Gr 5 recovery, 20 mg/kg): NC A
Clinical observations ([1]; Day 15-21, Gr 2, 1 mg/kg): NC A
Clinical observations ([1]; Day 15-21, Gr 3, 20 mg/kg): NC A
Clinical observations ([1]; Day 15-21, Gr 5 recovery, 20 mg/kg): NC A
Clinical observations ([1]; Day 22-28, Gr 2, 1 mg/kg): NC A
Clinical observations ([1]; Day 22-28, Gr 3, 20 mg/kg): NC A
Clinical observations ([1]; Day 22-28, Gr 5 recovery, 20 mg/kg): NC A
Clinical observations ([1]; Day 29-35, Gr 5 recovery, 20 mg/kg): NC A
Clinical observations ([1]; Day 36-43, Gr 5 recovery, 20 mg/kg): NC A
Heart weight (% body weight) ([2]; 1 mg/kg): 0.31 ± 0.026 % body weight
Heart weight on Necropsy ([2]; 1 mg/kg): 1.211 ± 0.1348 g
Heart weight (% body weight) ([2]; 20 mg/kg): 0.34 ± 0.025 % body weight
Heart weight on Necropsy ([2]; 20 mg/kg): 1.322 ± 0.1050 g
Organ weight: Adrenals ([2]; Day 29, Gr 2, 1 mg/kg): 0.0454 ± 0.00783 g
Organ weight: Spleen ([2]; Day 29, Gr 2, 1 mg/kg): 0.8031 ± 0.0637 g
effect on organ weights as a percentage of body weight ([2]; Day 29, Gr 2, 1 mg/kg): did not have any effect
macroscopic changes at necropsy ([2]; Day 29, Gr 2, 1 mg/kg): No gross abnormalities
Organ weight: Adrenals ([2]; Day 29, Gr 3, 20 mg/kg): 0.0473 ± 0.00889 g
effect on organ weights as a percentage of body weight ([2]; Day 29, Gr 3, 20 mg/kg): did not have any effect
macroscopic changes at necropsy ([2]; Day 29, Gr 3, 20 mg/kg): No gross abnormalities
Organ weight (% body weight): Adrenals [2, 6]: 0.0097 ± 0.00158%
Organ weight: Adrenals [2, 6]: 0.0443 ± 0.0061 g
effect on organ weights as a percentage of body weight [2, 6]: did not have any effect
macroscopic changes at necropsy [2, 6]: No gross abnormalities
ALT (serum alanine transaminase) ([3]; 1 mg/kg): 61.1 ± 15.53 IU/L
CK (serum creatine kinase) ([3]; 1 mg/kg): 164 ± 47.4 IU/L
K (serum potassium) ([3]; 1 mg/kg): 3.59 ± 0.137 mM
Na/K ratio ([3]; 1 mg/kg): 40.5 ± 1.59
ALT (serum alanine transaminase) ([3]; 20 mg/kg): 64.7 ± 19.01 IU/L
CK (serum creatine kinase) ([3]; 20 mg/kg): 140 ± 34.4 IU/L
K (serum potassium) ([3]; 20 mg/kg): 3.66 ± 0.295 mM
Na/K ratio ([3]; 20 mg/kg): 39.9 ± 3.16
ALP ([3]; Day 29, Gr 2, 1 mg/kg): 219 ± 37.4 IU/L
AST ([3]; Day 29, Gr 2, 1 mg/kg): 173 ± 69.4 IU/L
CK ([3]; Day 29, Gr 2, 1 mg/kg): 164 ± 47.4 IU/L
Na ([3]; Day 29, Gr 2, 1 mg/kg): 145 ± 0.7 mmol/L
ALP ([3]; Day 29, Gr 3, 20 mg/kg): 234 ± 35.7 IU/L
ALT ([3]; Day 29, Gr 3, 20 mg/kg): 64.7 ± 19.01 IU/L
AST ([3]; Day 29, Gr 3, 20 mg/kg): 163 ± 76.8 IU/L
CK ([3]; Day 29, Gr 3, 20 mg/kg): 140 ± 34.4 IU/L
Na ([3]; Day 29, Gr 3, 20 mg/kg): 145 ± 0.8 mmol/L
ALP [3, 6]: 144 ± 24.2 IU/L
ALT [3, 6]: 62 ± 20.2 IU/L
AST [3, 6]: 236 ± 106.7 IU/L
CK [3, 6]: 117 ± 36.0 IU/L
Na [3, 6]: 144 ± 0.4 mmol/L
TP [3, 6]: 62 ± 1.7 g/L
Cl ([3]; rat, in vivo, 1 mg/kg): 101 ± 1.2 mmol/L
Mean feed intake/cage [4]: 5180 g
distribution after oral dosing [5]: presence in the plasma, kidney and liver
excretion [5]: majority excreted in faeces
time of peak in urine [5]: 2 h
